Reference: patent US20220054658A1, “CONJUGATES” (Transfection Holdings Limited, priority 2018, published 2022)

System: C. elegans
Assay: Protein uptake in C. elegans (phiLOV protein conjugates)
Assay type: in vivo, Caenorhabditis elegans
Conditions: positive control
Procedure: The effective PhiLOV protein conjugate in M9 buffer was taken from the chemical ligation and purification experiments. The amount of M9 buffer added was determined by the final concentration required. Nematodes (30-40 per protein sample to be analysed) were picked and added to the protein solution, and the resulting suspension was treated with OP50 E. coli solution for nematode sustenance. The nematode suspension was incubated at 20° C. in the dark, and covered with aluminium foil.
Aliquots (10 to 25 μL) were taken at 24, 48 and 72 h. and transferred into a new Eppendorf tube at each time point and diluted with M9 buffer (200 μL). The new suspension was placed in ice (for 1-2 min) and then centrifuged at 10.000 rpm for 1 min. The supernatant was removed and the concentrated nematodes were washed again (2×200 μL). In the final wash, a residual volume (approx. 30 μL) was left with the nematodes.
For the microscopy studies, a 1.5% agarose solution in water was warmed up for 1-1.5 min in a standard household microwave (Power 4). Two drops of the agarose solution were placed on a glass slide and covered with another glass slide. After 1 min, the two slides were taken apart from each other carefully. On the slide where the agarose remained, 15-20 μL of the final C. elegans solution was placed. To this was added a 20 mM sodium azide solution (5 μL) to inhibit nematode mobility.
Vaseline was placed around the agarose area before replacing the top cover slip. The cover slips were not pressed together. The nematodes were then analysed using a Zeiss Axiskop 2 Plus microscope using a Hamamatsu Orca-ER (CA 742-95) camera. The images were resolved using OpenLab on a Mac operating system.
Feeding was repeated after 48 h. with addition of 2 μL of OP50 bacteria for feeding purposes, and the worm incubation was continued in the dark at […].
Using the approach described above, 11 protein conjugates were tested for their ability to deliver the phiLOV protein into nematodes. […] The location and efficiency of the delivery can be modulated by small structural modifications to the delivery vehicle, as shown by compounds P1-P11 (including negative control, positive control using compound 1 and untagged phiLOV protein control).

CC1=CC(C)=[N+]2C1=Cc1ccc(CCCn3cc(CCNC(=O)/C=C/NC(=O)[C@@H]4OC(C)(C)OCC4(C)C)nn3)n1[B-]2(F)F [Compound 1, (R,E)-N-((((3-[4,4-Difluoro-5,7-dimethyl-4-bora-3a,4a-diaza-s-indacene-3-yl]propyl)-1H-1,2,3-triazol-4-yl)ethylamino)-3-oxoprop-1-enyl)-2,2,5,5-tetramethyl-1,3-dioxane-4-carboxamide]
location of fluorescence in C. elegans (24 h incubation): fluorescence could be observed in the pharynx, gut lumen and gut cells of both adults and larval stages of C. elegans | location of fluorescence in C. elegans (48 h incubation): fluorescence was still localised in the pharynx, gut lumen and gut cells of both adults and larvae | location of fluorescence in C. elegans (72 h incubation): fluorescence was still localised in the pharynx, gut lumen and gut cells of both adults and larvae | state of adult nematodes (72 h point (same seen with M9 buffer negative control)): the adult nematodes were dead
